Data from ChEMBL document CHEMBL4308841, “Synthesis, in vitro antiproliferative activity, and kinase inhibitory effects of pyrazole-containing diarylureas and diarylamides” (Eur J Med Chem, 2018).

Columns and labels:
[1] = tested on: NCI-H23; test: Growth inhibition of human NCI-H23 cells assessed as cell growth at 0.01 uM incubated for 48 hrs by sulforhodamine B assay relative to control; assay type: functional; settings: NCI-H23, 48 h, read-out: Activity
[2] = tested on: OVCAR-4; test: Growth inhibition of human OVCAR4 cells assessed as cell growth at 1 uM incubated for 48 hrs by sulforhodamine B assay relative to control; assay type: functional; settings: OVCAR-4, 48 h, read-out: Activity
[3] = tested on: SR; test: Growth inhibition of human SR cells assessed as cell growth at 100 uM incubated for 48 hrs by sulforhodamine B assay relative to control; assay type: functional; settings: read-out: Activity
[4] = tested on: RPMI-8226; test: Growth inhibition of human RPMI8226 cells assessed as cell growth at 100 uM incubated for 48 hrs by sulforhodamine B assay relative to control; assay type: functional; settings: RPMI-8226, 48 h, read-out: Activity
[5] = tested on: UACC-62; test: Growth inhibition of human UACC62 cells assessed as cell growth at 100 uM incubated for 48 hrs by sulforhodamine B assay relative to control; assay type: functional; settings: UACC-62, 48 h, read-out: Activity
[6] = tested on: UACC-62; test: Growth inhibition of human UACC62 cells assessed as cell growth at 1 uM incubated for 48 hrs by sulforhodamine B assay relative to control; assay type: functional; settings: UACC-62, 48 h, read-out: Activity
[7] = tested on: HCT-116; test: Growth inhibition of human HCT116 cells incubated for 48 hrs by sulforhodamine B assay; assay type: functional, cell-based; settings: HCT-116, 48 h
[8] = tested on: SF-268; test: Growth inhibition of human SF268 cells incubated for 48 hrs by sulforhodamine B assay; assay type: functional, cell-based; settings: SF-268, 48 h
[9] = tested on: NCI-H226; test: Growth inhibition of human NCI-H226 cells assessed as cell growth at 0.1 uM incubated for 48 hrs by sulforhodamine B assay relative to control; assay type: functional; settings: NCI-H226, 48 h, read-out: Activity
[10] = tested on: SK-MEL-28; test: Growth inhibition of human SK-MEL-28 cells assessed as cell growth at 0.1 uM incubated for 48 hrs by sulforhodamine B assay relative to control; assay type: functional; settings: SK-MEL-28, 48 h, read-out: Activity
[11] = tested on: NCI-H23; test: Growth inhibition of human NCI-H23 cells assessed as cell growth at 0.1 uM incubated for 48 hrs by sulforhodamine B assay relative to control; assay type: functional; settings: NCI-H23, 48 h, read-out: Activity
[12] = tested on: MDA-MB-468; test: Growth inhibition of human MDA-MB-468 cells assessed as cell growth at 0.01 uM incubated for 48 hrs by sulforhodamine B assay relative to control; assay type: functional; settings: MDA-MB-468, 48 h, read-out: Activity
[13] = tested on: SNB-75; test: Growth inhibition of human SNB75 cells assessed as cell growth at 0.01 uM incubated for 48 hrs by sulforhodamine B assay relative to control; assay type: functional; settings: SNB-75, 48 h, read-out: Activity
[14] = tested on: PC-3; test: Growth inhibition of human PC3 cells assessed as cell growth at 100 uM incubated for 48 hrs by sulforhodamine B assay relative to control; assay type: functional; settings: PC-3, 48 h, read-out: Activity
[15] = tested on: OVCAR-8; test: Growth inhibition of human OVCAR8 cells assessed as cell growth at 0.1 uM incubated for 48 hrs by sulforhodamine B assay relative to control; assay type: functional; settings: OVCAR-8, 48 h, read-out: Activity
[16] = tested on: SNB-19; test: Growth inhibition of human SNB19 cells assessed as cell growth at 1 uM incubated for 48 hrs by sulforhodamine B assay relative to control; assay type: functional; settings: SNB-19, 48 h, read-out: Activity
[17] = tested on: CAKI-1; test: Growth inhibition of human Caki1 cells incubated for 48 hrs by sulforhodamine B assay; assay type: functional, cell-based; settings: CAKI-1, 48 h
[18] = tested on: KM12; test: Growth inhibition of human KM12 cells assessed as cell growth at 100 uM incubated for 48 hrs by sulforhodamine B assay relative to control; assay type: functional; settings: KM12, 48 h, read-out: Activity
[19] = tested on: KM12; test: Growth inhibition of human KM12 cells incubated for 48 hrs by sulforhodamine B assay; assay type: functional, cell-based; settings: KM12, 48 h
[20] = tested on: DU-145; test: Growth inhibition of human DU145 cells incubated for 48 hrs by sulforhodamine B assay; assay type: functional, cell-based; settings: DU-145, 48 h
[21] = tested on: U-251; test: Growth inhibition of human U251 cells assessed as cell growth at 0.1 uM incubated for 48 hrs by sulforhodamine B assay relative to control; assay type: functional; settings: U-251, 48 h, read-out: Activity
[22] = tested on: SN12C; test: Growth inhibition of human SN12C cells assessed as cell growth at 1 uM incubated for 48 hrs by sulforhodamine B assay relative to control; assay type: functional; settings: read-out: Activity
[23] = tested on: SK-MEL-5; test: Growth inhibition of human SK-MEL-5 cells assessed as cell growth at 0.01 uM incubated for 48 hrs by sulforhodamine B assay relative to control; assay type: functional; settings: SK-MEL-5, 48 h, read-out: Activity
[24] = tested on: RXF 393; test: Growth inhibition of human RXF393 cells assessed as cell growth at 1 uM incubated for 48 hrs by sulforhodamine B assay relative to control; assay type: functional; settings: RXF 393, 48 h, read-out: Activity
[25] = tested on: ACHN; test: Growth inhibition of human ACHN cells incubated for 48 hrs by sulforhodamine B assay; assay type: functional, cell-based
[26] = tested on: UACC-62; test: Growth inhibition of human UACC62 cells incubated for 48 hrs by sulforhodamine B assay; assay type: functional, cell-based; settings: UACC-62, 48 h
[27] = tested on: NCI-H226; test: Growth inhibition of human NCI-H226 cells incubated for 48 hrs by sulforhodamine B assay; assay type: functional, cell-based; settings: NCI-H226, 48 h
[28] = tested on: A498; test: Growth inhibition of human A498 cells assessed as cell growth at 100 uM incubated for 48 hrs by sulforhodamine B assay relative to control; assay type: functional; settings: A498, 48 h, read-out: Activity
[29] = read-out: LC50 (the source's name)
[30] = read-out: pLC50 (the source's name) (converted)

Compound: O=C(Nc1cccc(-n2cc(-c3ccncc3)c(-c3cc(O)cc(Cl)c3)n2)c1)Nc1ccc(Cl)c(C(F)(F)F)c1
- growth at 0.01 µM [1]: 92%
- growth at 1 µM [2]: 105%
- growth at 100 µM [3]: -40%
- growth at 100 µM [4]: -30%
- growth at 100 µM [5]: -85%
- growth at 1 µM [6]: 99%
- IC50 [7]: 1.96 µM
- GI50 ([7]; read-out: GI50): 1.96 µM
- CC50 [7, 29]: 10.7 µM
- TGI ([7]; read-out: TGI): 44.7 µM
- GI50 ([7]; read-out: pGI50 (converted)): 1.95 µM
- CC50 [7, 30]: 10.7 µM
- TGI ([7]; read-out: pTGI (converted)): 4.47 µM
- GI50 ([8]; read-out: GI50): 3.1 µM
- CC50 [8, 29]: > 100 µM
- TGI ([8]; read-out: TGI): 18 µM
- GI50 ([8]; read-out: pGI50 (converted)): 3.09 µM
- CC50 [8, 30]: > 100 µM
- TGI ([8]; read-out: pTGI (converted)): 15.8 µM
- growth at 0.1 µM [9]: 95%
- growth at 0.1 µM [10]: 100%
- growth at 0.1 µM [11]: 91%
- growth at 0.01 µM [12]: 93%
- growth at 0.01 µM [13]: 53%
- growth at 100 µM [14]: -83%
- growth at 0.1 µM [15]: 100%
- growth at 1 µM [16]: 104%
- GI50 ([17]; read-out: GI50): 2.53 µM
- CC50 [17, 29]: > 100 µM
- TGI ([17]; read-out: TGI): 78.7 µM
- GI50 ([17]; read-out: pGI50 (converted)): 2.69 µM
- CC50 [17, 30]: > 100 µM
- TGI ([17]; read-out: pTGI (converted)): 7.94 µM
- growth at 100 µM [18]: -74%
- GI50 ([19]; read-out: GI50): 2.5 µM
- CC50 [19, 29]: 47.2 µM
- TGI ([19]; read-out: TGI): 90.6 µM
- GI50 ([19]; read-out: pGI50 (converted)): 2.57 µM
- CC50 [19, 30]: 46.8 µM
- TGI ([19]; read-out: pTGI (converted)): 9.77 µM
- GI50 ([20]; read-out: GI50): 3.77 µM
- CC50 [20, 29]: 55.8 µM
- TGI ([20]; read-out: TGI): 11.7 µM
- GI50 ([20]; read-out: pGI50 (converted)): 3.31 µM
- CC50 [20, 30]: 56.2 µM
- TGI ([20]; read-out: pTGI (converted)): 11.7 µM
- growth at 0.1 µM [21]: 91%
- growth at 1 µM [22]: 97%
- growth at 0.01 µM [23]: 97%
- growth at 1 µM [24]: 58%
- GI50 ([25]; read-out: GI50): 3.1 µM
- CC50 [25, 29]: > 100 µM
- TGI ([25]; read-out: TGI): 15.3 µM
- GI50 ([25]; read-out: pGI50 (converted)): 3.09 µM
- CC50 [25, 30]: > 100 µM
- TGI ([25]; read-out: pTGI (converted)): 15.1 µM
- IC50 [26]: 2.08 µM
- GI50 ([26]; read-out: GI50): 2 µM
- CC50 [26, 29]: 91.9 µM
- TGI ([26]; read-out: TGI): 43.8 µM
- GI50 ([26]; read-out: pGI50 (converted)): 2.09 µM
- CC50 [26, 30]: 9.12 µM
- TGI ([26]; read-out: pTGI (converted)): 4.37 µM
- GI50 ([27]; read-out: GI50): 2.47 µM
- LC50 ([27]; read-out: LC50): > 100 µM
- TGI ([27]; read-out: TGI): 89.6 µM
- GI50 ([27]; read-out: pGI50 (converted)): 2.45 µM
- LC50 ([27]; read-out: pLC50 (converted)): > 100 µM
- TGI ([27]; read-out: pTGI (converted)): 8.91 µM
- growth at 100 µM [28]: -35%
